Data: patent US20090023747A1, “Cysteine Protease Inhibitors” (priority 2005, published 2009)

Columns and labels:
cathepsin K = biological target: T1, cathepsin K (Homo sapiens, UniProt P43235); experiment: Determination of cathepsin K proteolytic catalytic activity (fluorogenic peptide substrate); assay type: biochemical; conditions: human recombinant enzyme
T1 construct: made in house; host or cells: not fixed: E coli, Pichia or Baculovirus systems named as options
T1 sequence (P43235 115-329): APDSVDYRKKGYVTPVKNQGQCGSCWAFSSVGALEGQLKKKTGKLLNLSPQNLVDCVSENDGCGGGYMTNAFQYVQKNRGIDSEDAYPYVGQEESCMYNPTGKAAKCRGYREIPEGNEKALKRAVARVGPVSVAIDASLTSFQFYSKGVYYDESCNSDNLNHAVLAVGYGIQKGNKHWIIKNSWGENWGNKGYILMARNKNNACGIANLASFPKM
Description: Convenient assays for cathepsin K are carried out using human recombinant enzyme, such as that described in PDB.
The recombinant cathepsin K can be expressed in a variety of commercially available expression systems including E coli, Pichia and Baculovirus systems.
The purified enzyme is activated by removal of the prosequence by conventional methods.
Standard assay conditions for the determination of kinetic constants used a fluorogenic peptide substrate, typically H-D-Ala-Leu-Lys-AMC, and were determined in either 100 mM Mes/Tris, pH 7.0 containing 1 mM EDTA and 10 mM 2-mercaptoethanol or 100 mMNa phosphate, imM EDTA, 0.1% PEG4000 pH 6.5 or 100 mM Na acetate, pH 5.5 containing 5 mM EDTA and 20 mM cysteine, in each case optionally with […] as stabiliser. The enzyme concentration used was 5 nM. The stock substrate solution was prepared at 10 mM in DMSO. Screens were carried out at a fixed substrate concentration of 60 μM and detailed kinetic studies with doubling dilutions of substrate from 250 μM. The total DMSO concentration in the assay was kept below 3%. All assays were conducted at ambient temperature. Product fluorescence (excitation at 390 nm, emission at 460 nm) was monitored with a Labsystems Fluoroskan Ascent fluorescent plate reader. Product progress curves were generated over 15 minutes following generation of AMC product.
(§1) Potential inhibitors are screened using the above assay with variable concentrations of test compound. Reactions were initiated by addition of enzyme to buffered solutions of substrate and inhibitor. Ki values were calculated according to equation 1
(§2) where v0 is the velocity of the reaction, V is the maximal velocity, S is the concentration of substrate with Michaelis constant of KM, and I is the concentration of inhibitor.

cathepsin L = cathepsin L (Homo sapiens, UniProt P07711); experiment: Cathepsin L Ki determination (H-D-Val-Leu-Lys-AMC substrate); assay type: biochemical
Description: The procedure above with the following amendments is used for the determination of Ki for cathepsin L.
The enzyme is commercially available human cathepsin L (for example Calbiochem). The substrate is H-D-Val-Leu-Lys-AMC available from Bahcem. The assay buffer is 100 mM sodium acetate 1 mM EDTA, pH5.5) The DMSO stock (10 mM in 100% DMSO) is diluted to 10% in assay buffer. Enzyme is prepared at 5 nM concentration in assay buffer plus 1 mM dithiothreitol just before use. 2 ul of 10 mM inhibitor made up in 100% DMSO is dispensed into row A. 10 ul of 50 uM substrate (=1/200 dilution of 10 mM stock in DMSO, diluted in assay buffer)
as §1, §2

cathepsin S = biological target: T2, cathepsin S (Homo sapiens, UniProt P25774); experiment: Cathepsin S Ki determination (boc-Val-Leu-Lys-AMC substrate); assay type: biochemical; conditions: baculovirus-expressed human cathepsin S
T2 construct: made in house
Description: The assay uses baculovirus-expressed human cathepsin S and the boc-Val-Leu-Lys-AMC fluorescent substrate available from Bachem in a 384 well plate format, in which 7 test compounds can be tested in parallel with a positive control comprising a known cathepsin S inhibitor comparator.
280 μl/well of 12.5% DMSO are added to rows B-H of two columns of a 96 deep well polypropylene plate. 70 μl/well of substrate is added to row A. 2×250 μl/well of assay buffer (100 mM Na phosphate, 100 mM NaCl, pH 6.5) is added to row A, mixed, and double diluted down the plate to row H.
100 μl/well of assay buffer is added to columns 2-5 and 7-12 of 4 rows of a 96 well V bottom polypropylene plate. 200 μl/well of assay buffer is added to columns 1 and 6.
2 μl of each 10 mM test compound is added to a separate well on row A, columns 1-10. Add 90 μl assay buffer containing 1 mM DTT and 2 nM cathepsin S to each well of rows B-H and 180 μl to row A. Mix row A using a multichannel pipette and double dilute to row G. Mix row H and read in the fluorescent spectrophotometer.
The second test compound is added to column 6 of the top row, the third to column 1 of the second row etc. Add 1 μl of comparator to column 6 of the bottom row. Mix column 1 and double dilute to column 5. Mix column 6 and double dilute to column 10.
Using an 8-channel multistepping pipette set to 5×10 μl, distribute 10 μl/well of substrate to the 384 well assay plate. Distribute the first column of the substrate dilution plate to all columns of the assay plate starting at row A. The tip spacing of the multichannel pipette will correctly skip alternate rows. Distribute the second column to all columns starting at row B.
Using a 12-channel multistepping pipette set to 4×10 μl, distribute 10 μl/well of inhibitor to the 384 well assay plate. Distribute the first row of the inhibitor dilution plate to alternate rows of the assay plate starting at A1. The tip spacing of the multichannel pipette will correctly skip alternate columns. Similarly, distribute the second, third and fourth rows to alternate rows and columns starting at A2, B1 and B2 respectively.
Mix 20 ml assay buffer and 20 μl 1M DTT. Add sufficient cathepsin S to give 2 nM final concentration.
Using the a distributor such as a Multidrop 384, add 30 μl/well to all wells of the assay plate and read in fluorescent spectrophotomoter such as an Ascent.
Fluorescent readings, (excitation and emission wavelengths 390 nm and 460 nm respectively, set using bandpass filters) reflecting the extent of enzyme cleavage of the fluorescent substrate, […] the inhibitor, are linear rate fitted for each well.
Fitted rates for all wells for each inhibitor are fitted to the competitive inhibition equation using SigmaPlot 2000 to determine V, Km and Ki values.
as §1, §2

[1] = reference markers for the permeability assay; cited from earlier work

T2 sequence (P25774 115-331): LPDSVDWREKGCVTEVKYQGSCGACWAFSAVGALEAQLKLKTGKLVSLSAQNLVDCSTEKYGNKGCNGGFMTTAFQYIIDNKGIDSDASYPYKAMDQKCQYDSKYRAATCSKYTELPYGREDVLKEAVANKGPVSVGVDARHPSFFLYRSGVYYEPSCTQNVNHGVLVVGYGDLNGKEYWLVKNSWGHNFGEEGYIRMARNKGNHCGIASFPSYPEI
Sequence of cathepsin L (P07711 114-333): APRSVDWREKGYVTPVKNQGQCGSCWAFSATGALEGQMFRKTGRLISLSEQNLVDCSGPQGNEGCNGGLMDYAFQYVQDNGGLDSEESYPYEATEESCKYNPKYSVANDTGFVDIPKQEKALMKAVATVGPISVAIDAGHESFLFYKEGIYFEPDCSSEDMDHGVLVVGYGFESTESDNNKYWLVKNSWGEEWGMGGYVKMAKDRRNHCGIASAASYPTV

Compound | IC50 (cathepsin K) | IC50 (cathepsin L) | IC50 (cathepsin S) | % absorption in man [1]
COc1ccc(-c2ccc([C@H](N[C@@H](CC(C)C)C(=O)N3C[C@H](F)[C@H]4OCC(=O)[C@H]43)C(F)(F)F)cc2)cc1 [Example 31, (3aS,6S,6aS)-6-Fluoro-4-{(S)-4-methyl-2-[(S)-2,2,2-trifluoro-1-(4′-methoxy-biphenyl-4-yl)-ethylamino]-pentanoyl}-tetrahydro-furo[3,2-b]pyrrol-3-one] | 0.07 µM | 29 µM | 19 µM | –
CC(C)C[C@H](N[C@@H](c1ccc(-c2csc(N3CCN(C)CC3)n2)cc1)C(F)(F)F)C(=O)N1C[C@H](F)[C@H]2OCC(=O)[C@H]21 [Example 58, (3aS,6S,6aS)-6-Fluoro-4-[(S)-4-methyl-2-((S)-2,2,2-trifluoro-1-{4-[2-(4-methyl-piperazin-1-yl)-thiazol-4-yl]-phenyl}-ethylamino)-pentanoyl]-tetrahydro-furo[3,2-b]pyrrol-3-one] | < 0.005 µM | 139 µM | 188 µM | –
CC(C)C[C@H](N[C@@H](c1ccc(-c2ccccc2F)cc1)C(F)(F)F)C(=O)N1C[C@H](F)[C@H]2OCC(=O)[C@H]21 [Example 26, (3aS,6S,6aS)-6-Fluoro-4-{(S)-4-methyl-2-[(S)-2,2,2-trifluoro-1-(2′-fluoro-biphenyl-4-yl)-ethylamino]-pentanoyl}-tetrahydro-furo[3,2-b]pyrrol-3-one] | 0.044 µM | 25 µM | 22 µM | –
CSc1ccc(-c2ccc([C@H](N[C@@H](CC(C)C)C(=O)N3C[C@H](F)[C@H]4OCC(=O)[C@H]43)C(F)(F)F)cc2)cc1 [Example 28, (3aS,6S,6aS)-6-Fluoro-4-{(S)-4-methyl-2-[(S)-2,2,2-trifluoro-1-(4′-methylsulfanyl-biphenyl-4-yl)-ethylamino]-pentanoyl}-tetrahydro-furo[3,2-b]pyrrol-3-one] | 0.051 µM | 5.5 µM | 10 µM | –
CC(C)C[C@H](N[C@@H](c1ccc(-c2ccc(S(C)(=O)=O)cc2)cc1)C(F)(F)F)C(=O)N1C[C@H](F)[C@H]2OCC(=O)[C@H]21 [Example 14, (3aS,6S,6aS)-6-Fluoro-4-[(S)-4-methyl-2-{(S)-2,2,2-trifluoro-1-(4′-methanesulfonyl-biphenyl-4-yl)-ethylamino]-pentanoyl}-tetrahydro-furo[3,2-b]pyrrol-3-one] | 0.029 µM | 100 µM | 36 µM | –
Cc1ccc(-c2ccc([C@H](N[C@@H](CC(C)C)C(=O)N3C[C@H](F)[C@H]4OCC(=O)[C@H]43)C(F)(F)F)cc2)cc1 [Example 33, (3aS,6S,6aS)-6-Fluoro-4-{(S)-4-methyl-2-[(S)-2,2,2-trifluoro-1-(4′-methyl-biphenyl-4-yl)-ethylamino]-pentanoyl}-tetrahydro-furo[3,2-b]pyrrol-3-one] | 0.19 µM | 20 µM | 20 µM | –
N[C@@H](Cc1ccccc1)C(=O)O [L-Phenylalanine] | – | – | – | 100%
CC(C)C[C@H](N[C@@H](c1ccc(-c2ccc([S+](C)[O-])cc2)cc1)C(F)(F)F)C(=O)N1C[C@H](F)[C@H]2OCC(=O)[C@H]21 (stereo partly drawn) [Example 29, (3aS,6S,6aS)-6-Fluoro-4-{(S)-4-methyl-2-[(S)-2,2,2-trifluoro-1-(4′-methylsulfoxide-biphenyl-4-yl)-ethylamino]-pentanoyl}-tetrahydro-furo[3,2-b]pyrrol-3-one] | 0.018 µM | 180 µM | 27 µM | –
CC(C)C[C@H](N[C@@H](c1ccc(-c2cccc(S(C)(=O)=O)c2)cc1)C(F)(F)F)C(=O)N1C[C@H](F)[C@H]2OCC(=O)[C@H]21 [Example 18, (3aS,6S,6aS)-6-Fluoro-4-{(S)-4-methyl-2-[(S)-2,2,2-trifluoro-1-(3′-methanesulfonyl-biphenyl-4-yl)-ethylamino]-pentanoyl}-tetrahydro-furo[3,2-b]pyrrol-3-one] | 0.056 µM | 94 µM | 19 µM | –
CC(C)C[C@H](N[C@@H](c1ccc(-c2ccc(F)cc2)cc1)C(F)(F)F)C(=O)N1C[C@H](F)[C@H]2OCC(=O)[C@H]21 [Example 20, (3aS,6S,6aS)-6-Fluoro-4-{(S)-4-methyl-2-[(S)-2,2,2-trifluoro-1-(4′-fluoro-biphenyl-4-yl)-ethylamino]-pentanoyl}-tetrahydro-furo[3,2-b]pyrrol-3-one] | 0.18 µM | 30 µM | 37 µM | –
OC[C@@H](O)[C@@H](O)[C@H](O)[C@H](O)CO [Mannitol] | – | – | – | 16%
CN(Cc1cnc2nc(N)nc(N)c2n1)c1ccc(C(=O)N[C@@H](CCC(=O)O)C(=O)O)cc1 [Methotrexate] | – | – | – | 20%
